Measured values as given in patent US20130337564A1, “Treatment of Pluripotent Cells” (Janssen Biotech, Inc., priority 2012, published 2013).
Where “and” joins values, the source holds several entries; their conditions need not be identical. Equal entries are not always repeated.

Tests used:
Format in all cases: cell-based
[1] = tested on: HNF-3beta expression in human embryonic stem cells (H9 line); assay: High content screening assay: HNF-3beta protein expression (differentiation); conditions: for HNF3β Expression, Fold over Wnt 3a/AA control: 10 μM test compound with 100 ng/ml activin A on days 1-2, H9, total intensity by IN Cell Analyzer, strong and moderate hits; for HNF-3b Expression Fold over Wnt 3a/AA control: total intensity normalised to Wnt 3a/AA control
Procedure: (§1) Maintenance of human embryonic stem cells (H9 line) was conducted as described in Example 1. Colonies of cells were maintained in an undifferentiated, pluripotent state with passage on average every four days. Passage was performed by exposing cell cultures to a solution of collagenase (1 mg/ml; Sigma-Aldrich) for 10 to 30 minutes at 37° C. followed by gentle scraping with a pipette tip to recover cell clusters. Clusters were allowed to sediment by gravity, followed by washing to remove residual collagenase. Cell clusters were split at a 1:3 ratio for routine maintenance culture or a 1:1 ratio for immediate assay. The human embryonic stem cell lines used were maintained at passage numbers less than passage 50 and routinely evaluated for normal karyotypic phenotype and absence of mycoplasma contamination.
(§2) Cell clusters used in the assay were evenly resuspended in normal culture medium and plated onto MATRIGEL-coated 96-well Packard VIEWPLATES (PerkinElmer) in volumes of […]. MEF conditioned medium supplemented with 8 ng/ml bFGF was used for initial plating and recovery. Daily feeding was conducted by aspirating spent culture medium from each well and replacing with an equal volume of fresh medium. Plates were maintained at 37° C., 5% CO2 in a humidified box throughout the duration of assay.
(§3) Screening was conducted using test compounds from a proprietary library of small molecules selected for their ability to inhibit GSK-3B enzyme activity. Compounds from this library were made available as 1 mM stocks, in a 96-well plate format in 50 mM HEPES, 30% DMSO. Screening compounds were tested in triplicate or duplicate sets. Primary screening assays were initiated by aspirating culture medium from each well followed by three washes in PBS to remove residual growth factors and serum. Test volumes of 80 to 100 μl per well were added back containing DMEM:F12 base medium (Invitrogen) supplemented with 0.5% FCS (HyClone) and 100 ng/ml activin A (R&D Biosystems) plus 10 μM test compound. Positive control wells contained the same base medium, substituting 10-20 ng/ml Wnt3a (R&D Biosystems) for the test compound. Negative control wells contained base medium with 0.5% FCS and activin A alone (AA only) or alternatively, 0.5% FCS without activin A or Wnt3a (no treatment). Wells were aspirated and fed again with identical solutions on day 2 of assay. On days 3 and 4, all assay wells were aspirated and converted to DMEM:F12 supplemented with 2% FCS and 100 ng/ml activin A (without test compound or Wnt3a); parallel negative control wells were maintained in DMEM:F12 base medium with 2% FCS and activin A (AA only) or alternatively, 2% FCS without activin A (no treatment).
(§4) At the end of culture, cells in 96-well plates were fixed with 4% paraformaldehyde at room temperature for 20 minutes, washed three times with PBS, and then permeabilized with 0.5% Triton X-100 for 20 minutes at room temperature. Alternatively, cells were fixed with ice cold 70% ethanol overnight at −20° C., washed three times with PBS, and then permeabilized with Triton X-100 for 5 minutes at 4° C. After fixing and permeabilizing, cells were washed again three times with PBS and then blocked with 4% chicken serum (Invitrogen) in PBS for 30 minutes at room temperature. Primary antibodies (goat anti-human Sox17 and goat anti-human HNF-3beta; R&D Systems) were diluted 1:100 in 4% chicken serum and added to cells for one hour at room temperature. Alexa Fluor 488 conjugated secondary antibody (chicken anti-goat IgG; Molecular Probes) was diluted 1:200 in PBS and added after washing the cells three times with PBS. To counterstain nuclei, 5 mM Draq5 (Alexis Biochemicals) was added for five minutes at room temperature. Cells were washed once with PBS and left in […] PBS for imaging.
(§5) Cells were imaged using an IN Cell Analyzer 1000 (GE Healthcare) utilizing the 51008bs dichroic for cells stained with Draq5 and Alexa Fluor 488. […]

[2] = tested on: cells expressing pluripotency markers derived from human embryonic stem cells; assay: MTS viability (toxicity) assay of cells expressing pluripotency markers; set-up: Raw data (duplicate), first replicate / Average: unit not given here; conditions: for viability at 10 µM: Homo sapiens, Embryonic stem cell; for viability at 10 µM / % Control: viability of cells expressing pluripotency markers, relative to control; for Raw data (duplicate), first replicate / Raw data (duplicate), second replicate: MTS viability assay raw reading; for Raw data (duplicate), first replicate: replicate 1; for Raw data (duplicate), second replicate: replicate 2; for Average: average of duplicate MTS raw readings
Procedure: Derivation and maintenance of cells expressing pluripotency makers was conducted as has been described in Example 2. Cells were grown in DMEM:F12 supplemented with 2% FCS (Invitrogen), 100 ng/ml Activin A, 20 ng/ml Wnt-3a, and 50 ng/ml IGF (R&D Biosystems). Cells were seeded at a density of 10,000 cells/cm^2 on Falcon polystyrene flasks and grown in monolayer culture at 37° C., 5% CO2, low oxygen. After reaching 60-70% confluence, cells were passed by washing the monolayer with PBS and incubating with TrypLE (Invitrogen) for 3-5 minutes to allow detachment and single cell dispersal.
Screening was conducted using test compounds from a proprietary library of small molecules selected for their ability to inhibit GSK-3B enzyme activity. Compounds from this library were made available as 1 mM stocks, in a 96-well plate format in 50 mM HEPES, 30% DMSO. For assay, cells expressing pluripotency markers were washed, counted, and plated in normal culture medium at a seeding density of 20,000 cells per well in 96-well clear-bottom, dark-well plates (Costar). This seeding density was previously determined to yield optimal monolayer formation in overnight culture. On the following day, culture medium was removed, cell monolayers were rinsed three times with PBS, and test compounds were added to the wells in 80 μl aliquots, each diluted into assay medium at a final assay concentration of 10 μM. On day 2 of the assay, medium was removed from each well and replaced with a fresh aliquot of test compounds diluted into assay medium. Assay medium on days 1 and 2 of culture consisted of DMEM:F12 supplemented with 0.5% FCS and 100 ng/ml Activin A. On days 3 and 4 of culture, medium was removed from each well and replaced with DMEM:F12 supplemented with 2% FCS and 100 ng/ml Activin A (no test compound). On day 4 of assay, 15 μl of MTS (Promega) was added to each well and plates were incubated at 37° C. for 1.5 to 4 hours prior to reading optical density at 490 nm on a SpectraMax (Molecular Devices) instrument. Statistical measures consisting of mean, standard deviation, and coefficient of variation were calculated for each duplicate set. Toxicity was calculated for each test well relative to a positive control (wells treated with Activin A and Wnt3a on days 1 and 2 of culture).
A larger proportion of the compounds have minimal or no measurable toxicity in this cell-based assay.
A small panel of select compounds was repeat tested over a narrow dose titration range, again using cells expressing pluripotency markers in a similar assay as described above.

[3] = tested on: human embryonic stem cells (H9 line); assay: High content screening assay: cell number (proliferative response)
Procedure: as §1, §2, §3, §4, §5

[4] = tested on: Sox17 expression in human embryonic stem cells (H9 line); assay: High content screening assay: Sox17 protein expression (differentiation); conditions: for fold induction at 10 µM: Homo sapiens, Embryonic stem cell, read-out: SOX17 Expression, Fold over Wnt 3a/AA control; for fold induction at 10 µM / SOX17 Expression, Fold over Wnt 3a/AA control: 10 μM test compound with 100 ng/ml activin A on days 1-2, H9, total intensity by IN Cell Analyzer, strong and moderate hits; for SOX-17 Expression Fold over Wnt 3a/AA control: total intensity normalised to Wnt 3a/AA control
Procedure: as §1, §2, §3, §4, §5

[5] = cell number in the wells analysed for HNF-3b expression
[6] = cell number in the wells analysed for SOX-17 expression
[7] = 10 μM test compound with 100 ng/ml activin A on days 1-2, H9, total cell number by IN Cell Analyzer, strong and moderate hits
[8] = cell number in the wells analysed for HNF-3b expression, normalised to Wnt 3a/AA control
[9] = cell number in the wells analysed for SOX-17 expression, normalised to Wnt 3a/AA control

SMILES	HNF-3b Expression Total Intensity [1]	viability at 10 µM [2] [%]	Raw data (duplicate), first replicate [2]	Raw data (duplicate), second replicate [2]	Average [2]	Proliferative Response Total cells [3, 5]	Proliferative Response Total cells [3, 6]	fold induction at 10 µM [4]	SOX-17 Expression Total Intensity [4]	HNF3β Expression, Fold over Wnt 3a/AA control [1]	HNF-3b Expression Fold over Wnt 3a/AA control [1] [fold]	% Control [2] [%]	Proliferative Response Fold over Wnt 3a/AA control [3, 7]	Proliferative Response Fold over Wnt 3a/AA control [3, 8] [fold]	Proliferative Response Fold over Wnt 3a/AA control [3, 9] [fold]	SOX17 Expression, Fold over Wnt 3a/AA control [4]	SOX-17 Expression Fold over Wnt 3a/AA control [4] [fold]	fold induction at 10 µM ([3]; Homo sapiens, Embryonic stem cell, 10 μM test compound with 100 ng/ml activin A on days 1-2, H9, total cell number by IN Cell Analyzer, strong and moderate hits, read-out: Proliferative Response, Fold over Wnt 3a/AA control)
NCCCn1nc(C2=C(c3cn(-c4csc5ccccc45)c4ccccc34)C(=O)NC2=O)c2ccccc21 [Compound 4]	125125000	2.6	0.132	0.137	0.134	2776	2914	0.616	230965000	–	–	–	–	–	–	–	–	–
O=C1NC(=O)C2=C1c1cn(c3ncccc13)CCOCCOCCOCCn1cc2c2cccnc21 [Compound 167]	437235000	–	0.804	0.903	0.853	5013	6217	–	337920000	0.9515 Fold over Wnt 3a/AA control	0.9515	109.0	0.9928 Fold over Wnt 3a/AA control	0.9928	0.7801	0.9014 Fold over Wnt 3a/AA control	0.9014	–
CCN1CCOCCn2cc(c3ccccc32)C2=C(C(=O)NC2=O)c2cn(c3ccccc23)CCOCC1 [Compound 15, 11-Ethyl-6,7,10,11,12,13,15,16-octahydro-9H,23H-5,26:17,22-di(metheno)dibenzo[k,q]pyrrolo[3,4-n][1,7,4,10,19]dioxatriazacyclohenicosine-23,25(24H)-dione]	404710000	–	0.162	0.134	0.148	5186	10533	–	475250000	0.8807 Fold over Wnt 3a/AA control	0.8807	4.5	1.3217 Fold over Wnt 3a/AA control and 1.0269 Fold over Wnt 3a/AA control	1.027	1.322	1.2678 Fold over Wnt 3a/AA control	1.2678	–
O=C1NC(=O)C(c2nn(CCCO)c3ccccc23)=C1c1cn(-c2ccc3ccccc3c2)c2ccccc12 [Compound 13]	326475000	92.6	0.767	0.789	0.778	4556	4783	0.817	306085000	0.7104 Fold over Wnt 3a/AA control	–	–	–	–	–	–	–	0.902
O=C1NC(=O)C2=C1c1cn(c3ncccc13)CCOCCOCCOCCn1cc2c2cccnc21 [Compound 2, 6,7,9,10,12,13,15,16-Octahydro-23H-5,26:17,22-di(metheno)dipyrido[2,3-k:3′,2′-q]pyrrolo[3,4-n][1,4,7,10,19]trioxadiazacyclohenicosine-23,25(24H)-dione]	463525000	–	0.785	0.790	0.788	5679	10963	–	296920000	1.0087 Fold over Wnt 3a/AA control	1.0087	94.0	1.3757 Fold over Wnt 3a/AA control and 1.1246 Fold over Wnt 3a/AA control	1.125	1.376	0.7921 Fold over Wnt 3a/AA control	0.7921	–
